Measurements published in patent publication US20220274913A1, “PROCESS FOR MANUFACTURING A SUBSTITUTED CYCLOHEXANECARBONITRILE” (SOLVAY SA, priority 2019, published 2022).
“Also recorded” adds a separate entry of the source.

Tests used:
Type in all cases: physicochemical
[1] = Weight partition coefficient Kb of hydrogen peroxide between the water and the working solution; H2O2 in organic phase
Procedure: (§1) (*) the polar solvents tested were sextate, decanenitrile, 2,2,6-trimethylcyclohexanecarbonitrile (C10A), 2,2,5,6-tetramethylcyclohexanecarbonitrile (C11A) and 1,2,2,4-tetramethylcyclohexylcarbonitrile (C11B). […] In this Figure, Kb stands for the weight partition coefficient of hydrogen peroxide between the water and the working solution (mixture of quinones and organic solvents). It is calculated using the following formula:
Kb=(g H2O2/kg aqueous phase)/(g H2O2/kg organic phase)

[2] = Solubility tests of hydrogenated quinones (QH) in solvent mixtures (polar solvent + S-150), synthetic EQ/ETQ working solutions; details: for Test level values (theoretical gH2O2/kg of WS), comparison in words: Table 1; for Test level (gH2O2/kg) measured at 50° C. / Test level (gH2O2/kg) measured at 55° C. / Test level (gH2O2/kg) measured at 60° C. / Test level (gH2O2/kg) measured at 65° C. / Test level (gH2O2/kg) measured at 70° C.: 34*QH/240
Procedure: The determination of the QH solubility was performed on synthetic EQ/ETQ working solutions. These quinones mixed in the tested solvents have been hydrogenated to a fixed level and cooled down successively to 3 different temperatures before the measurement (min. 3 hours to stabilize the system between each measurement). The conditions applied for these tests were:
as §1, with “formula: […]” for “formula:”
The maximum solubility of a hydrogenated quinone (QH) in a solvent mixture is directly correlated with the productivity of the working solution. The higher is the QH solubility, the higher will be the theoretical quantity of hydrogen peroxide achievable per kg of WS (Productivity). These theoretical values, designated by the terms “Test level (gH2O2/kg of WS) measured at . . . ” in Table 1, were calculated as follows: […]
1 mole (240 g) ETQH (which actually is the QH in our Examples) per kg of WS will produce 1 mole (34 g) of H2O2 per kg of WS.

[3] = Approx density of polar solvents at ambient temperature
[4] = TOC in the H2O2 obtained (solubility of the solvent in H2O2); details: for Solubility of the solvent in H2O2 (as indicated by level of TOC in the H2O2 obtained): comparison in words, Table 2
[5] = Polar solvent 30% / Solvesso 150 70%
[6] = Polar solvent 40% / Solvesso 150 60%
[7] = Polar solvent 60% / Solvesso 150 40%
[8] = Polar solvent 70% / Solvesso 150 30%
[9] = polar solvent 77% / S150 23%, listed as 4MCH-CN
[10] = Polar solvent 50% / Solvesso 150 50%

Molecule | H2O2 in OP [1, 5] | H2O2 in OP [1, 6] | H2O2 in OP [1, 7] | H2O2 in OP [1, 8] | Test level values (theoretical gH2O2/kg of WS), comparison in words [2] | Test level (gH2O2/kg) measured at 60° C. ([2]; polar solvent 50% / S150 50%) | Test level (gH2O2/kg) measured at 65° C. ([2]; polar solvent 50% / S150 50%) | Test level (gH2O2/kg) measured at 70° C. ([2]; polar solvent 50% / S150 50%) | Approx density of polar solvents at amb T° [3] | TOC in H2O2 [4, 5] | TOC in H2O2 [4, 6] | TOC in H2O2 [4, 10] | TOC in H2O2 [4, 7] | TOC in H2O2 [4, 8] | Solubility of the solvent in H2O2 (as indicated by level of TOC in the H2O2 obtained) [4] | H2O2 in OP [1, 10] | other results
CC1CCC(C)(C)C(C#N)C1C (stereo not shown) [C11A, 2,2,5,6-tetramethylcyclohexanecarbonitrile] | 0.919 g/kg | 1.271 g/kg | 2.332 g/kg | 2.786 g/kg | reach the absolute maximum theoretical value | 9.8 gH2O2/kg | 10.8 gH2O2/kg | 14.8 gH2O2/kg | ~0.895 kg/L | 281 ppm | 268 ppm | 269 ppm | 274 ppm | 291 ppm | less soluble in H2O2 than solvent C10A | – | Test level (gH2O2/kg) measured at 50° C. ([2]; polar solvent 50% / S150 50%): 7.7 gH2O2/kg; Test level (gH2O2/kg) measured at 55° C. ([2]; polar solvent 50% / S150 50%): 8.6 gH2O2/kg; Test level (gH2O2/kg) measured at 50° C. ([2]; polar solvent 77% / S150 23%): 11.9 gH2O2/kg; Test level (gH2O2/kg) measured at 55° C. ([2]; polar solvent 77% / S150 23%): 12.8 gH2O2/kg; QH (g/kg) measured at 60° C. ([2]; polar solvent 77% / S150 23%): complete solubility; Test level (gH2O2/kg) measured at 60° C. ([2]; polar solvent 77% / S150 23%): 16.3 gH2O2/kg; Test level (gH2O2/kg) measured at 60° C. [2, 9]: full soluble; QH (g/kg) measured at 60° C. [2, 9]: full soluble; QH (g/kg) measured at 65° C. ([2]; polar solvent 77% / S150 23%): full soluble; Test level (gH2O2/kg) measured at 65° C. ([2]; polar solvent 77% / S150 23%): full soluble; QH (g/kg) measured at 70° C. ([2]; polar solvent 77% / S150 23%): full soluble; Test level (gH2O2/kg) measured at 70° C. ([2]; polar solvent 77% / S150 23%): full soluble
CCCCCCCCCC#N [Decanenitrile, decanenitrile, reference compound] | – | – | – | – | – | – | – | – | ~0.83 kg/L | – | – | – | – | – | – | – | Test level (gH2O2/kg) measured at 60° C. ([2]; polar solvent 35% / S150 65%): 8.8 gH2O2/kg; Test level (gH2O2/kg) measured at 65° C. ([2]; polar solvent 35% / S150 65%): 10.1 gH2O2/kg; Test level (gH2O2/kg) measured at 70° C. ([2]; polar solvent 35% / S150 65%): 11.1 gH2O2/kg
CC1CCC(C)(C#N)C(C)(C)C1 (stereo not shown) [C11B, 1,2,2,4-tetramethylcyclohexanecarbonitrile] | – | 1.632 g/kg | 3.167 g/kg | 3.805 g/kg | – | – | – | – | – | – | 308 ppm | 328 ppm | 280 ppm | 290 ppm | less soluble in H2O2 than solvent C10A | 2.487 g/kg | Test level (gH2O2/kg) measured at 55° C. ([2]; polar solvent 52% / S150 48%): 9.4 gH2O2/kg; Test level (gH2O2/kg) measured at 60° C. ([2]; polar solvent 52% / S150 48%): 10.8 gH2O2/kg; Test level (gH2O2/kg) measured at 65° C. ([2]; polar solvent 52% / S150 48%): 15.1 gH2O2/kg; QH (g/kg) measured at 70° C. ([2]; polar solvent 52% / S150 48%): full soluble; Test level (gH2O2/kg) measured at 70° C. ([2]; polar solvent 52% / S150 48%): full soluble; Test level (gH2O2/kg) measured at 55° C. ([2]; polar solvent 70% / S150 30%): 15.5 gH2O2/kg; QH (g/kg) measured at 60° C. ([2]; polar solvent 70% / S150 30%): complete solubility; also recorded: full soluble; QH (g/kg) measured at 65° C. ([2]; polar solvent 70% / S150 30%): full soluble; Test level (gH2O2/kg) measured at 65° C. ([2]; polar solvent 70% / S150 30%): full soluble; QH (g/kg) measured at 70° C. ([2]; polar solvent 70% / S150 30%): full soluble; Test level (gH2O2/kg) measured at 70° C. ([2]; polar solvent 70% / S150 30%): full soluble
methyl cyclohexyl acetate [Sextate, reference compound] | – | – | – | – | – | – | – | – | ~0.94 kg/L | – | – | – | – | – | – | – | QH (g/kg) measured at 60° C. ([2]; polar solvent 40% / S150 60%): 52 g/kg; Test level (gH2O2/kg) measured at 60° C. ([2]; polar solvent 40% / S150 60%): 7.4 gH2O2/kg; QH (g/kg) measured at 65° C. ([2]; polar solvent 40% / S150 60%): 60.8 g/kg; Test level (gH2O2/kg) measured at 65° C. ([2]; polar solvent 40% / S150 60%): 8.6 gH2O2/kg; QH (g/kg) measured at 70° C. ([2]; polar solvent 40% / S150 60%): 68 g/kg; Test level (gH2O2/kg) measured at 70° C. ([2]; polar solvent 40% / S150 60%): 9.6 gH2O2/kg
CC1CCCC(C)(C)C1C#N (stereo not shown) [C10A, 2,2,6-trimethylcyclohexanecarbonitrile] | 0.9821 g/kg | 1.466 g/kg | 3.08 g/kg | 3.871 g/kg | much higher (almost the double in fact) than with sextate or a linear nitrile like decanenitrile | 10.5 gH2O2/kg | 11.4 gH2O2/kg | full soluble | ~0.89 kg/L | 928 ppm | 1042 ppm | 1248 ppm | 1456 ppm | 1684 ppm | – | 2.135 g/kg | QH (g/kg) measured at 70° C. ([2]; polar solvent 50% / S150 50%): full soluble; Test level (gH2O2/kg) measured at 60° C. ([2]; polar solvent 60% / S150 40%): 15.6 gH2O2/kg; QH (g/kg) measured at 65° C. ([2]; polar solvent 60% / S150 40%): full soluble; Test level (gH2O2/kg) measured at 65° C. ([2]; polar solvent 60% / S150 40%): full soluble; QH (g/kg) measured at 70° C. ([2]; polar solvent 60% / S150 40%): full soluble; Test level (gH2O2/kg) measured at 70° C. ([2]; polar solvent 60% / S150 40%): full soluble
